pIC50: −log10 of the molar value. Converted amounts (≈) assume the structure as drawn.
Experiments:
[1] = biological target: Voltage-gated inwardly rectifying potassium channel KCNH2 (Homo sapiens, UniProt Q12809)
Description: Displacement of radiolabeled MK-499 from human ERG expressed in HEK293 cells

[2] = biological target: Gamma-secretase; experiment: Inhibition of gamma-secretase in human SH-SY5Y cells overexpressing APP assessed as amyloid beta-40 production by electrochemiluminescent assay
[3] = biological target: Gamma-secretase; experiment: Inhibition of gamma-secretase in human SH-SY5Y cells overexpressing APP assessed as amyloid beta-42 production by electrochemiluminescent assay
[4] = test system: Rattus norvegicus; experiment: Dose normalized AUC in Sprague-Dawley rat at 2 mg/kg, po; type: ADME, organism-based; parameters: dose 2 mg/kg, route oral; details: in vivo
[5] = test system: Rattus norvegicus; experiment: Volume of distribution at steady state in Sprague-Dawley rat at 2 mg/kg, po; type: ADME, organism-based; parameters: dose 2 mg/kg, route oral; details: in vivo
[6] = Volume of distribution at steady state in Sprague-Dawley rat at 1 mg/kg, iv; type: ADME, organism-based; parameters: dose 1 mg/kg, route intravenous; details: in vivo
[7] = Plasma clearance in Sprague-Dawley rat at 1 mg/kg, iv; type: ADME, organism-based; parameters: dose 1 mg/kg, route intravenous
[8] = Oral bioavailability in Sprague-Dawley rat at 2 mg/kg; type: ADME, organism-based; details: in vivo
[9] = Plasma clearance in Sprague-Dawley rat at 2 mg/kg, po; type: ADME, organism-based; parameters: dose 2 mg/kg, route oral
[10] = Half life in Sprague-Dawley rat at 1 mg/kg, iv; type: ADME, organism-based; parameters: dose 1 mg/kg, route intravenous; details: in vivo
[11] = Solubility of the compound in PBS buffer; type: physicochemical

Voltage-gated inwardly rectifying potassium channel KCNH2, sequence (Q12809 whole entry): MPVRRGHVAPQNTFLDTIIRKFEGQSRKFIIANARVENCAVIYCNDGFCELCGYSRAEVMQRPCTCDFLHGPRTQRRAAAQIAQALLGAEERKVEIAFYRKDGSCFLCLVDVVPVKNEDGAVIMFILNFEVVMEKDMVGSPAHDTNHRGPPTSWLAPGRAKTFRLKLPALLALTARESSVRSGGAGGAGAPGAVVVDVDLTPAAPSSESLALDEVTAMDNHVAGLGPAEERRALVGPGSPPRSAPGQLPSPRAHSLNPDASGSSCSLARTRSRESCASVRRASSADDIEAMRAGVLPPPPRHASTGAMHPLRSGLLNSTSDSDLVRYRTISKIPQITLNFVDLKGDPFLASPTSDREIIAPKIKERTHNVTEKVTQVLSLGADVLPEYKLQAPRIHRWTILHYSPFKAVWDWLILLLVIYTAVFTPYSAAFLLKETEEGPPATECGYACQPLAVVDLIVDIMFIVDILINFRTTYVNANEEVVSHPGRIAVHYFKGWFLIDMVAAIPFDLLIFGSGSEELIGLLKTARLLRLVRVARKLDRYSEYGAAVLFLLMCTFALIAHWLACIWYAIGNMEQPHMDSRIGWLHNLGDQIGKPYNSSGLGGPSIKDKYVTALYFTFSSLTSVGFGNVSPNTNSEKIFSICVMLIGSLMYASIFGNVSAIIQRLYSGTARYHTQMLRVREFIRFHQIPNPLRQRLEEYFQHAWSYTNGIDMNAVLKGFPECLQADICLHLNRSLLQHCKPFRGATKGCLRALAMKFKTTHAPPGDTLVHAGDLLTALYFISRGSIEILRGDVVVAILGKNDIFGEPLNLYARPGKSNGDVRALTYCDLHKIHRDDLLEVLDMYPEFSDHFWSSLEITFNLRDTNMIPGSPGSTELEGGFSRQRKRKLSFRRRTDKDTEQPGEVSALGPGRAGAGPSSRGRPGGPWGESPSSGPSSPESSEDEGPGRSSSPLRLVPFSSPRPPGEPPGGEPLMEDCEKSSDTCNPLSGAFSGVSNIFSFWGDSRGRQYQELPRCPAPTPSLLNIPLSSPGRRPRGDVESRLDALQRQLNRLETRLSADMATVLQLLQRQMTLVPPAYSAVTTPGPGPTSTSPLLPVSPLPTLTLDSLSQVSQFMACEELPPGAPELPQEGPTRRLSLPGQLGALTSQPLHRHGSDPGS

pIC50 [2] | pIC50 [3] | SMILES | pIC50 [1] | further results
< 5.00 | 6.08 | COc1cc(/C=C/c2nc3ccccc3[nH]2)ccc1-n1cnc(C)c1 | 6.17 | –
5.31 | 5.41 | COc1cc(/C=C/c2nc3ccccc3c(=O)[nH]2)ccc1-n1cnc(C)c1 | – | –
< 5.00 | 5.31 | COc1cc(/C=C/c2nc3cccc(F)c3c(=O)[nH]2)ccc1-n1cnc(C)c1 | – | –
< 5.00 | 5.37 | COc1cc(/C=C/c2nc3ccc(F)cc3c(=O)[nH]2)ccc1-n1cnc(C)c1 | – | –
< 5.00 | 6.18 | COc1cc(/C=C/c2nc3cc(Cl)ccc3c(=O)[nH]2)ccc1-n1cnc(C)c1 | – | AUC [4]: 7 µM·h; Vdss [5]: 8 L/kg; Vd [6]: 1.8 L/kg; clearance [7]: 6.8 mL/min/kg; bioavailability [8]: 59%; CL/F [9]: 8 mL/min/kg; half-life [10]: 5.8 h
5.32 | 6.47 | COc1cc(/C=C/c2nc3cc(Br)ccc3c(=O)[nH]2)ccc1-n1cnc(C)c1 | – | –
5.17 | 5.66 | COc1cc(/C=C/c2nc3cc(S(C)(=O)=O)ccc3c(=O)[nH]2)ccc1-n1cnc(C)c1 | – | –
5.43 | 6.43 | COc1cc(/C=C/c2nc3cc(C(F)(F)F)ccc3c(=O)[nH]2)ccc1-n1cnc(C)c1 | – | –
< 5.00 | 5.89 | COc1cc(/C=C/c2nc3scc(C)c3c(=O)[nH]2)ccc1-n1cnc(C)c1 | < 5.00 | –
< 5.00 | 5.78 | COc1cc(/C=C/c2nc3sc(C)c(C)c3c(=O)[nH]2)ccc1-n1cnc(C)c1 | < 5.00 | –
5.41 | 6.43 | COc1cc(/C=C/c2nc3sc4c(c3c(=O)[nH]2)CCC4)ccc1-n1cnc(C)c1 | 5.33 | –
5.21 | 5.77 | COc1cc(/C=C/c2nc(N)c3ccccc3n2)ccc1-n1cnc(C)c1 | 6.85 | solubility [11]: 6 µM (≈ 2.14 µg/mL)
< 5.00 | 5.68 | COc1cc(/C=C/c2nc3ccccc3c(=O)n2-c2ccccc2)ccc1-n1cnc(C)c1 | 6.00 | –
< 5.00 | < 5.00 | COc1cc(/C=C/c2nc3ccccc3c(=O)n2C)ccc1-n1cnc(C)c1 | – | solubility [11]: 33 µM (≈ 12.3 µg/mL)
5.48 | 5.97 | COc1cc(/C=C/c2nc(N)nc(Nc3ccccc3)n2)ccc1-n1cnc(C)c1 | – | –
5.43 | 6.27 | CCOC(=O)c1sc2nc(/C=C/c3ccc(-n4cnc(C)c4)c(OC)c3)nc(N)c2c1C | 6.01 | –
5.53 | 6.49 | COc1cc(/C=C/c2nc(N)c3c(n2)oc2ccccc23)ccc1-n1cnc(C)c1 | 6.29 | –
< 5.00 | 5.73 | COc1cc(/C=C/c2nc(NCc3ccccc3)c3c4c(sc3n2)CCC4)ccc1-n1cnc(C)c1 | 5.95 | –
5.69 | 6.70 | COc1cc(/C=C/c2nc(N)c3c4c(sc3n2)CCCCC4)ccc1-n1cnc(C)c1 | – | –
